Each compound was assayed on Hedgehog signal transduction system (Smo) (assay: Gli reporter luciferase assay in NIH-3T3/Gli reporter cells stimulated with mouse Shh-N end fragment). Settings: NIH3T3; 1 μM compound; NIH-3T3/Gli reporter cells with mouse Shh-N end fragment culture supernatant, 48 hr; luciferase activity, control without compound as 100; read-out: inhibition rate (%) at 1 μM.
Type: cell-based
From the text: Inhibition of the Hedgehog signal transduction system can be measured, for example, by quantifying a decrease in the expression level of a reporter gene connected to the downstream of the Gli binding site based on the fluorescence intensity according to the following Experimental Example 1. Alternatively, it can be measured by quantifying the expression of Gli-1 mRNA in a cell extract by quantitative PCR method and the like. A compound that inhibits Hedgehog signal targets Smo, which can be confirmed, for example, by binding fluorescence-labeled Cyclopamine and a test compound to cells expressing Smo, measuring the fluorescence level of the cell, and comparing the value with that without addition of a test compound to find a decrease.
Gli reporter plasmid was constructed by inserting 8×Gli-binding site and chicken δ-crystalline promoter into the upstream of luc+ of pGL3 (Promega).
prepared in reference to the base sequence described in GenBank accession No.; X02187, and chicken genome DNA (Clontech) as a template. PCR reaction was performed using Pfu Turbo (Stratagene) and following the attached protocol. The obtained 108 bp fragment was digested with restriction enzymes BglII and HindIII, and inserted into BglII-HindIII site of pGL3 to give plasmid pGL3/δ-cry promoter.
As 8× Gli-binding site, a sequence containing eight 9-bp Gli bound consensus sequences (GACCACCCA) described in Yoon et al., J. Biol. Chem., vol. 273, pages 3496-3501 (1998) was prepared from synthetic DNA. That is, two synthetic DNAs,
were heat treated at 95° C. for 2 minutes, and incubated at 37° C. for 1 hr for annealing to give a double stranded DNA of the above-mentioned two synthetic DNAs. The obtained double stranded DNA was digested with restriction enzymes BglII and KpnI, and the obtained DNA fragment was inserted into BglII-KpnI site of pGL3/δ-cry promoter to construct plasmid pGL3/δ-cry promoter, 8× Gli binding site, i.e., Gli reporter plasmid. 2. Construction of Plasmid for Expression of Mouse Shh-N End Fragment
As a material for construction of plasmid for Shh-N end fragment expression, mouse Shh cDNA was cloned at first.
The mouse Shh cDNA was cloned by Nested PCR method using mouse 11-day fetus cDNA (Clontech) as a template. The primer sequence was prepared in reference to the base sequence described in GenBank accession No.; NM_009170.
Using the mouse Shh cDNA sequence obtained as mentioned above as a template, a partial cDNA sequence wherein stop codon (TGA) was added to 3′-terminal of cDNA sequence encoding 1st to 198th amino acid sequence of mouse Shh was obtained by PCR method. As the primer set,
In the manner mentioned above, a plasmid for mouse Shh-N end fragment expression, pcDNA3.1/mShh-N, was constructed.
HEK293 cells were grown in D-MEM medium (Invitrogen) containing 10% fetal bovine serum in a 10 cm dish and pcDNA3.1/mShh-N was introduced into the cells using FuGENE6 (Roche Applied Science). Thereafter, the HEK293 cells were cultured in a carbon dioxide gas incubator at 37° C. for 24 hours, and the medium was exchanged with D-MEM medium (Invitrogen) containing 2% fetal bovine serum. After culturing for 48 hr, culture supernatant containing recombinant type mouse Shh-N end fragment was obtained by filtration using a filter ([…]).
Using D-MEM (Invitrogen) containing 10% fetal bovine serum, expression plasmid pcDNA3:1 and Gli reporter plasmid (pGL3/δ-cry promoter, 8× Gli binding site) produced by the method of Experimental Example 1 were introduced into NIH-3T3 cells grown in a 10 cm dish by the use of FuGENE6 (Roche Applied Science).
After culture for 24 hr, the cells were recovered, suspended in D-MEM medium containing 10% fetal bovine serum and supplemented with Geneticin (Life Technologies Oriental, Inc.) to a final concentration of 500 μg/ml, diluted to 10^4 cells/ml, plated on a 96 well plate, and cultured in a carbon dioxide gas incubator at 37° C. to give Geneticin resistant transformed cell line. […]
In the case of CCc1nc2c(cc1NC(=O)c1cccs1)c(OC(C)C)c(C(=O)NC1CCN(C(=O)CO)CC1)n2C [Example 51, 6-ethyl-N-[1-(hydroxyacetyl)piperidin-4-yl]-1-methyl-3-(1-methylethoxy)-5-[(thiophen-2-ylcarbonyl)amino]-1H-pyrrolo[2,3-b]pyridine-2-carboxamide], the inhibition at 1 µM is reported as 94%. CCc1nc2c(cc1NC(=O)c1ccco1)c(OCC(F)(F)F)c(C(=O)NC1CCN(C(=O)CO)CC1)n2C [Example 52, 6-ethyl-5-[(furan-2-ylcarbonyl)amino]-N-[1-(hydroxyacetyl)piperidin-4-yl]-1-methyl-3-(2,2,2-trifluoroethoxy)-1H-pyrrolo[2,3-b]pyridine-2-carboxamide] showed an inhibition at 1 µM of 94%. CCc1nc2c(cc1NC(=O)c1cncs1)c(OCC(F)(F)F)c(C(=O)NC1CCN(C(=O)CO)CC1)n2C [Example 53, 6-ethyl-N-[1-(hydroxyacetyl)piperidin-4-yl]-1-methyl-5-[(1,3-thiazol-5-ylcarbonyl)amino]-3-(2,2,2-trifluoroethoxy)-1H-pyrrolo[2,3-b]pyridine-2-carboxamide] gave an inhibition at 1 µM of 95%. For CCc1nc2c(cc1NC(=O)c1ccoc1)c(OCC(F)(F)F)c(C(=O)NC1CCN(C(=O)CO)CC1)n2C [Example 54, 6-ethyl-5-[(furan-3-ylcarbonyl)amino]-N-[1-(hydroxyacetyl)piperidin-4-yl]-1-methyl-3-(2,2,2-trifluoroethoxy)-1H-pyrrolo[2,3-b]pyridine-2-carboxamide], the inhibition at 1 µM was 99%. CCc1nc2c(cc1NC(=O)c1cscn1)c(OCC(F)(F)F)c(C(=O)NC1CCN(C(=O)CO)CC1)n2C [Example 56, 6-ethyl-N-[1-(hydroxyacetyl)piperidin-4-yl]-1-methyl-5-[(1,3-thiazol-4-ylcarbonyl)amino]-3-(2,2,2-trifluoroethoxy)-1H-pyrrolo[2,3-b]pyridine-2-carboxamide] was tested, and the inhibition at 1 µM was 97%. With CCc1nc2c(cc1NC(=O)c1cc(C)nn1C)c(OCC(F)(F)F)c(C(=O)NC1CCN(C(=O)CO)CC1)n2C [Example 57, 5-{[(1,3-dimethyl-1H-pyrazol-5-yl)carbonyl]amino}-6-ethyl-N-[1-(hydroxyacetyl)piperidin-4-yl]-1-methyl-3-(2,2,2-trifluoroethoxy)-1H-pyrrolo[2,3-b]pyridine-2-carboxamide] the inhibition at 1 µM was 99%. CCc1nc2sc(C(=O)NC3CCN(C(=O)CO)CC3)c(OCC(F)(F)F)c2cc1NC(=O)c1ccc(F)cc1 [Example 58, 6-ethyl-5-{[(4-fluorophenyl)carbonyl]amino}-N-[1-(hydroxyacetyl)piperidin-4-yl]-3-(2,2,2-trifluoroethoxy)thieno[2,3-b]pyridine-2-carboxamide] showed an inhibition at 1 µM of 97%. Work on CCc1nc2c(cc1NC(=O)c1ccc(Cl)s1)c(OC(C)C)c(C(=O)NC1CCN(C(=O)CO)CC1)n2C [Example 59, 5-{[(5-chlorothiophen-2-yl)carbonyl]amino}-6-ethyl-N-[1-(hydroxyacetyl)piperidin-4-yl]-1-methyl-3-(1-methylethoxy)-1H-pyrrolo[2,3-b]pyridine-2-carboxamide] yielded an inhibition at 1 µM of 95%. Work on CCc1nc2c(cc1NC(=O)c1ccccc1)c(OC(C)C)c(C(=O)NCCS(=O)(=O)CCOC)n2C [Example 60, 6-ethyl-N-{2-[(2-methoxyethyl)sulfonyl]ethyl}-1-methyl-3-(1-methylethoxy)-5-[(phenylcarbonyl)amino]-1H-pyrrolo[2,3-b]pyridine-2-carboxamide] yielded an inhibition at 1 µM of 95%. Work on CCc1nc2c(cc1NC(=O)c1ccsc1)c(OC(C)C)c(C(=O)NC1CCN(C(=O)CO)CC1)n2C [Example 61, 6-ethyl-N-[1-(hydroxyacetyl)piperidin-4-yl]-1-methyl-3-(1-methylethoxy)-5-[(thiophen-3-ylcarbonyl)amino]-1H-pyrrolo[2,3-b]pyridine-2-carboxamide] yielded an inhibition at 1 µM of 98%. Compound CCc1nc2c(cc1NC(=O)c1cscc1OC)c(OC(C)C)c(C(=O)NC1CCN(C(=O)CO)CC1)n2C [Example 62, 6-ethyl-N-[1-(hydroxyacetyl)piperidin-4-yl]-5-{[(4-methoxythiophene-3-yl)carbonyl]amino}-1-methyl-3-(1-methylethoxy)-1H-pyrrolo[2,3-b]pyridine-2-carboxamide] has an inhibition at 1 µM of 98%. With CCc1nc2c(cc1NC(=O)c1sccc1Cl)c(OC(C)C)c(C(=O)NC1CCN(C(=O)CO)CC1)n2C [Example 63, 5-{[(3-chlorothiophen-2-yl)carbonyl]amino}-6-ethyl-N-[1-(hydroxyacetyl)piperidin-4-yl]-1-methyl-3-(1-methylethoxy)-1H-pyrrolo[2,3-b]pyridine-2-carboxamide] the inhibition at 1 µM was 96%. Cc1cc2c(cc1NC(=O)c1ccccc1)c(OCC(F)(F)F)c(C(=O)NC1CCN(C(=O)CO)CC1)n2C [Example 67, N-[1-(hydroxyacetyl)piperidin-4-yl]-1,6-dimethyl-5-[(phenylcarbonyl)amino]-3-(2,2,2-trifluoroethoxy)-1H-indole-2-carboxamide] was tested, and the inhibition at 1 µM was 97%. Work on Cc1cc2sc(C(=O)NC3CCN(C(=O)CO)CC3)c(OCC(F)(F)F)c2cc1NC(=O)c1ccccc1 [Example 68, N-[1-(hydroxyacetyl)piperidin-4-yl]-6-methyl-5-[(phenylcarbonyl)amino]-3-(2,2,2-trifluoroethoxy)-1-benzothiophene-2-carboxamide] yielded an inhibition at 1 µM of 96%. Compound CCc1nc2c(cc1NC(=O)c1nccs1)c(OCC(F)(F)F)c(C(=O)NC1CCN(C(=O)CO)CC1)n2C [Example 69, 6-ethyl-N-[1-(hydroxyacetyl)piperidin-4-yl]-1-methyl-5-[(1,3-thiazol-2-ylcarbonyl)amino]-3-(2,2,2-trifluoroethoxy)-1H-pyrrolo[2,3-b]pyridine-2-carboxamide] has an inhibition at 1 µM of 99%. CCc1cc2c(cc1NC(=O)c1ccccc1)c(OC(C)C)c(C(=O)NC1CCN(C(=O)CO)CC1)n2C [Example 71, 6-ethyl-N-[1-(hydroxyacetyl)piperidin-4-yl]-1-methyl-3-(1-methylethoxy)-5-[(phenylcarbonyl)amino]-1H-indole-2-carboxamide] showed an inhibition at 1 µM of 97%. CCc1cc2c(nc1NC(=O)c1ccccc1)c(OCC(F)(F)F)c(C(=O)NC1CCN(C(=O)CO)CC1)n2C [Example 127, 6-ethyl-N-[1-(hydroxyacetyl)piperidin-4-yl]-1-methyl-5-[(phenylcarbonyl)amino]-3-(2,2,2-trifluoroethoxy)-1H-pyrrolo[3,2-b]pyridine-2-carboxamide] was tested, and the inhibition at 1 µM was 96%. In the case of CCc1cc2c(nc1-c1ccccc1)c(OCC(F)(F)F)c(C(=O)NC1CCN(C(=O)CO)CC1)n2C [Example 128, 6-ethyl-N-[1-(hydroxyacetyl)piperidin-4-yl]-1-methyl-5-phenyl-3-(2,2,2-trifluoroethoxy)-1H-pyrrolo[3,2-b]pyridine-2-carboxamide], the inhibition at 1 µM is reported as 94%. Compound CCOc1c(C(=O)NC2CCN(C(=O)CO)CC2)n(C)c2cc(CC)c(NC(=O)c3ccccc3)nc12 [Example 129, 3-ethoxy-6-ethyl-N-[1-(hydroxyacetyl)piperidin-4-yl]-1-methyl-5-[(phenylcarbonyl)amino]-1H-pyrrolo[3,2-b]pyridine-2-carboxamide] has an inhibition at 1 µM of 92%. CCc1cc2c(nc1NC(=O)c1ccccc1)c(OC(C)C)c(C(=O)NC1CCN(C(=O)CO)CC1)n2C [Example 130, 6-ethyl-N-[1-(hydroxyacetyl)piperidin-4-yl]-1-methyl-3-(1-methylethoxy)-5-[(phenylcarbonyl)amino]-1H-pyrrolo[3,2-b]pyridine-2-carboxamide] gave an inhibition at 1 µM of 84%.

— patent US8486965B2, “Pyrrolo[2,3-b]pyridine derivative and use thereof for treatment of cancer” (Takeda Pharmaceutical Company Limited, priority 2009, dated 2013)
